Results published in publication PMC12518996 (Frontiers in Pharmacology, 2025).

Experiments:
Format in all cases: in vitro ADME
CYP2A6 = target: T1, CYP2A6 (Homo sapiens, UniProt P11509); test: Metabolite formation by recombinant human CYP2A6; details: trazodone 4 μM; NADPH; 37 °C, 40 min
T1 sequence (P11509 1-494): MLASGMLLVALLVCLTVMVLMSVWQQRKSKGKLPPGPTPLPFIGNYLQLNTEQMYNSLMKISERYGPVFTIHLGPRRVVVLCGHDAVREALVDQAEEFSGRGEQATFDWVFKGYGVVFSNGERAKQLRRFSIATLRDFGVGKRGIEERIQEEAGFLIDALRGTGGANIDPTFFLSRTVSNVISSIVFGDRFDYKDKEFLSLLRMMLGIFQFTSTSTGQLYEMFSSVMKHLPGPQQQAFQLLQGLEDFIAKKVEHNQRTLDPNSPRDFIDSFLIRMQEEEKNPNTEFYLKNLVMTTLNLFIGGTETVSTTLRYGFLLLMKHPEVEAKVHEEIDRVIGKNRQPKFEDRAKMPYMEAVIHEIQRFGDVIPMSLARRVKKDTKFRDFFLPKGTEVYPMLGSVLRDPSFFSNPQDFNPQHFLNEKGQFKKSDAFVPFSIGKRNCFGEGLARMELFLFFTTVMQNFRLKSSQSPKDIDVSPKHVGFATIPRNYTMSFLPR
Description: (§1) To confirm the role of individual CYP isoforms in metabolizing trazodone, recombinant human and rat CYP enzymes were employed in separate incubations. […] Each reaction was terminated with acetonitrile, centrifuged, and the supernatant was analyzed by identical UHPLC-Orbitrap setup outlined in §2.2, allowing direct comparison of metabolite spectra across all in-vitro systems. […] This procedure helped confirm the contributions of individual isoforms to specific biotransformation reactions.

CYP2D6 = CYP2D6 (Homo sapiens, UniProt P10635); test: Metabolite formation by recombinant human CYP2D6; details: trazodone 4 μM; NADPH; 37 °C, 40 min
Description: as §1

CYP2C11 = target: T2, CYP2C11 (Rattus norvegicus, UniProt P08683); test: Metabolite formation by recombinant rat CYP2C11; details: trazodone 4 μM; NADPH; 37 °C, 40 min
T2 sequence (P08683 1-500): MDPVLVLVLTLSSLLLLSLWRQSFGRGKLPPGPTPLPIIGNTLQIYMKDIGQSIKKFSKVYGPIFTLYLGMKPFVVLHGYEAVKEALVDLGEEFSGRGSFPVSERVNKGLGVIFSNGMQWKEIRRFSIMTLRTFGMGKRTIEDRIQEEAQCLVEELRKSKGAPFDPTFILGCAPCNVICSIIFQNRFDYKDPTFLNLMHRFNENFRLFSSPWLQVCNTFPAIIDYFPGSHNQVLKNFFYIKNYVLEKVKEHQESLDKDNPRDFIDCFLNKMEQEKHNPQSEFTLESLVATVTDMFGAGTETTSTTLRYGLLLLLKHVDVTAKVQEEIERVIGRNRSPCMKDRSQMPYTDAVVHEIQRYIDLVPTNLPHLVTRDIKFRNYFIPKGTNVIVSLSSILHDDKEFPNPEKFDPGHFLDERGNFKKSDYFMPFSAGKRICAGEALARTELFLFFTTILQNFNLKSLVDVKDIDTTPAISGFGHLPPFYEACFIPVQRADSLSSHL
Description: as §1

CYP2C19 = CYP2C19 (Homo sapiens, UniProt P33261); test: Metabolite formation by recombinant human CYP2C19; details: trazodone 4 μM; NADPH; 37 °C, 40 min
Description: as §1

AOX = target: T3, AOX (Homo sapiens, UniProt Q06278); test: Metabolite formation by recombinant human AOX; details: trazodone 4 μM; 37 °C, 40 min
T3 sequence (Q06278 1-1338): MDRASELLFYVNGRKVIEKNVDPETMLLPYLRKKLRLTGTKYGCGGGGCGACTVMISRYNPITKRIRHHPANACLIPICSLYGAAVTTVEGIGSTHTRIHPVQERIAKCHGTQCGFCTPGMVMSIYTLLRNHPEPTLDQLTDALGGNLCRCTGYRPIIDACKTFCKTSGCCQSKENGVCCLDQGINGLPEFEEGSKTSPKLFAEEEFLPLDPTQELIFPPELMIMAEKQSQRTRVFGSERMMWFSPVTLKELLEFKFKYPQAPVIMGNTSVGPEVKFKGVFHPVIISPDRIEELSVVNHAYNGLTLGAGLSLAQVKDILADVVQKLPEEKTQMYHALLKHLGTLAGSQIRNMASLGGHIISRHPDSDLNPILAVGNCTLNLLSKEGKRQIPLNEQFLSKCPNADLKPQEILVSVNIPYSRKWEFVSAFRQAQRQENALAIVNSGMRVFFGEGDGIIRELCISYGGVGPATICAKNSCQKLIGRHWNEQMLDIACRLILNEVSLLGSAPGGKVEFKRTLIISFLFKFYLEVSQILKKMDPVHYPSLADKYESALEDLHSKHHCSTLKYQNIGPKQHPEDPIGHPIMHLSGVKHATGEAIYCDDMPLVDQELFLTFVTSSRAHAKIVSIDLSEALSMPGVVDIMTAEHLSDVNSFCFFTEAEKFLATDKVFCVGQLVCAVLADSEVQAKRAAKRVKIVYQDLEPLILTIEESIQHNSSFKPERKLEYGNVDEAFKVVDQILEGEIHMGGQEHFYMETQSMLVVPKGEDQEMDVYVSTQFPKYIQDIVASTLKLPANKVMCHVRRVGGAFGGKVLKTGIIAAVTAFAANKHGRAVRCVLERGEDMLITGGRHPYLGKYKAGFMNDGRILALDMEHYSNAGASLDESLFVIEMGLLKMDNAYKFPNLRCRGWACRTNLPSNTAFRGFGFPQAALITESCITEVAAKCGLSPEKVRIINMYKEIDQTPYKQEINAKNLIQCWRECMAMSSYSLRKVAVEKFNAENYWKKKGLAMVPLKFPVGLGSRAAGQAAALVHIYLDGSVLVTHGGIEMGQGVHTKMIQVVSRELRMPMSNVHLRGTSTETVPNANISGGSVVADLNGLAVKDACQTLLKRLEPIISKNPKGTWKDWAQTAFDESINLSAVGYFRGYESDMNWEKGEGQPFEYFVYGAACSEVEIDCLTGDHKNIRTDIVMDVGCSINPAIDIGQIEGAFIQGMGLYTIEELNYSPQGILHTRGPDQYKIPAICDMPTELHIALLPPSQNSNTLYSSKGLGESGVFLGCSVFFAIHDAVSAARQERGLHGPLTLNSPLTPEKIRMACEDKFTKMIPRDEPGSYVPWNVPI

CYP2D18 = test: Metabolite formation by recombinant rat CYP2D18; details: trazodone 4 μM; NADPH; 37 °C, 40 min
Description: as §1

CYP3A4 = CYP3A4 (Homo sapiens, UniProt P08684); test: Metabolite formation by recombinant human CYP3A4; details: trazodone 4 μM; NADPH; 37 °C, 40 min
Description: Each reaction was terminated with acetonitrile, centrifuged, and the supernatant was analyzed by identical UHPLC-Orbitrap setup outlined in §2.2, allowing direct comparison of metabolite spectra across all in-vitro systems.

Chain of CYP2D6 (P10635 whole entry): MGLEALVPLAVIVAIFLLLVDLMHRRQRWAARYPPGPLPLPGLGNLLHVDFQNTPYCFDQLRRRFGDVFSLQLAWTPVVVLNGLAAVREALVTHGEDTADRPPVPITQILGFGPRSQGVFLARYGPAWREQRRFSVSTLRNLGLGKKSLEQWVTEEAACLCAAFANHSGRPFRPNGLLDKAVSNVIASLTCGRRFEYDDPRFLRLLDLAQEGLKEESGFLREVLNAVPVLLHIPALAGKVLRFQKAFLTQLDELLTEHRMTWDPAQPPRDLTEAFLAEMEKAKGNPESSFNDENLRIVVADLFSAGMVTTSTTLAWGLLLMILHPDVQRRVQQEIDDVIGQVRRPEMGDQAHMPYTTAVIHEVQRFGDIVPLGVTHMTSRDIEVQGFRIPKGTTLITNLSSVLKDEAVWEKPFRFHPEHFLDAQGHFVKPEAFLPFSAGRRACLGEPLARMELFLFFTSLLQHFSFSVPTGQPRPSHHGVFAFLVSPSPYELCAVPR
Chain of CYP2C19 (P33261 whole entry): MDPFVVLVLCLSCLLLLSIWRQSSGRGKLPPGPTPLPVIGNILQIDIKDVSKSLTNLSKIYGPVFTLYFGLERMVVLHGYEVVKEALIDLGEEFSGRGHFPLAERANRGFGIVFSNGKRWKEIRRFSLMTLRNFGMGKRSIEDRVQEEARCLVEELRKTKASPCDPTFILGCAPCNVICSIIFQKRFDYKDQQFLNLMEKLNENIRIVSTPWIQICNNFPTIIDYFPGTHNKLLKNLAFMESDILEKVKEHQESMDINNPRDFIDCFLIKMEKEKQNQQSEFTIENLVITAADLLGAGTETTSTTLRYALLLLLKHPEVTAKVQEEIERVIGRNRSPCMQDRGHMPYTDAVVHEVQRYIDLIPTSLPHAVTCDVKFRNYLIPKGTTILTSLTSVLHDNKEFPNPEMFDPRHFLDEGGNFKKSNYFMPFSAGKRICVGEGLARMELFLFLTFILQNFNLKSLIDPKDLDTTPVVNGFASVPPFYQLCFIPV
Chain of CYP3A4 (P08684 whole entry): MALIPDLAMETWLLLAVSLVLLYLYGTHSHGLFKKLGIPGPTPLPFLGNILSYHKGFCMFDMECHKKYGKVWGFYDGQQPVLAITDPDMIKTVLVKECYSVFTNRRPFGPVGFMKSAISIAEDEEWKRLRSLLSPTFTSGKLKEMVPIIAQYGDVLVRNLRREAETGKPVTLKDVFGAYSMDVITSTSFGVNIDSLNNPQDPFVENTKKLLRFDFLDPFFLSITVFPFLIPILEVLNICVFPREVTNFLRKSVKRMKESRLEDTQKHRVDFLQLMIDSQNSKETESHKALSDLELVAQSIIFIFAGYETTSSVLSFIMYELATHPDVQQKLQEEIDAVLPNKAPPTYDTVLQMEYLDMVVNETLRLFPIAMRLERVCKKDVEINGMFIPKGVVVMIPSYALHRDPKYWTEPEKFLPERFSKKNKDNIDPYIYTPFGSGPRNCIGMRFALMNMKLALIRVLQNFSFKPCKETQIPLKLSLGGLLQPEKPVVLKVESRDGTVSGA

Row | SMILES | Formation of trazodone phase I metabolite by recombinant human CYP2A6 (as LC/MS peak areas) (CYP2A6) | Formation of trazodone phase I metabolite by recombinant human CYP2D6 (as LC/MS peak areas) (CYP2D6) | Formation of trazodone phase I metabolite by recombinant rat CYP2C11 (as LC/MS peak areas) (CYP2C11) | Formation of trazodone phase I metabolite by recombinant human CYP2C19 (as LC/MS peak areas) (CYP2C19) | Formation of trazodone phase I metabolite by recombinant human AOX (as LC/MS peak areas) (AOX) | Formation of trazodone phase I metabolite by recombinant rat CYP2D18 (as LC/MS peak areas) (CYP2D18) | Formation of trazodone phase I metabolite by recombinant human CYP3A4 (as LC/MS peak areas) (CYP3A4)
1 | O=c1n(CCCO)nc2ccccn12 [Metabolite M20] | 0 | 0 | 743 | 0 | 0 | 240 | 236
2 | Clc1cccc(N2CCNCC2)c1 [mCPP, m-chlorophenylpiperazine] | 8 | 0 | 6920 | 189 | 106 | 1962 | 32991
3 | O=c1n(CCCN2CCNCC2)nc2ccccn12 [Metabolite M15] | 0 | 0 | 1210 | 180 | 0 | 134 | 6716
